This note sets out measurements from patent US20250249025A1, “DRUG DELIVERY CARRIER UTILIZING PROPERTY OF D-ALLOSE BEING UPTAKEN BY CANCER CELL, DRUG DELIVERY METHOD, AND COMPOSITION FOR TREATING RENAL CELL CARCINOMA” (NATIONAL UNIVERSITY CORPORATION KAGAWA UNIVERSITY, priority 2019, published 2025).

Series [1] deals with renal cell carcinoma cell line (Caki-I). As to the kind of experiment: Cell survival assay (MTT assay), Caki-I. Conditions: 10 mM, 25 mM and 50 mM in MEM, 24 hours, compared with Control (p<0.05), FIG. 2. The format is cell-based, human. How it is done:
The antitumor effect of rare sugars was analyzed using the three human renal cell carcinoma cell lines (ACHN, Caki-I, and Caki-II) used in Example 1. As the rare sugars, used were the following ten rare sugars: L-allulose, D-allulose, D-allose, L-fructose, D-mannose, L-sorbose, D-tagatose, D-galactose, D-sorbose, and L-tagatose, while as monosaccharides not belonging to rare sugars, D-glucose and D-fructose were used.
As a medium, a minimum essential medium (MEM) containing 1000 mg/l of D-glucose was used. By adjusting it to contain 10 mM, 25 mM, and 50 mM of each of the monosaccharides or rare sugars and using thus-obtained MEMs [shown by (10), (25), and (50) in the drawing], an antitumor effect of the rare sugars was evaluated.
A 5.0×10^4 cells/ml of each of cell suspensions was formed using MEM. The resulting suspension (0.1 ml/well) was distributed in a 96-well plate, followed by culturing for 24 hours. […]
The MTT assay is one of test methods for measuring survival and makes use of a color reaction of an insoluble formazan dye (blue) caused by the reduction of MTT which is a tetrazolium salt. […] The cell viability is determined by measuring this color reaction with a microplate reader.
In general terms: Formazan colour is commonly taken as a measure of viable cells.

The test system of series [2] is human prostate carcinoma cell line Du145. As to the kind of experiment: Rare sugar uptake experiment, sugar content in disrupted cell suspension of Du145. The format is cell-based. As for the experimental part: (§1) An uptake amount of a rare sugar, which had been added to a medium, into carcinoma cells was analyzed using the cell lines of three types of cancers. As the rare sugar, four kinds, that is, D-allose, D-allulose (D-psicose), L-allulose (L-psicose), and allitol were used, while D-glucose and fructose were used as a monosaccharide which was not a rare sugar.
(§2) Cells of each of the cell lines were cultured in RPMI-1640 media and during culturing, six sugars were each added to the resulting media and cultured. After culturing, an amount of each sugar taken up into the cells was analyzed. The medium to which no sugar was added during culturing was used as a control.
(§3) Used were human bladder carcinoma cell lines (RT112, 253), and J82), human prostatic carcinoma cell lines (LNCa, Du145, and PC-3), and human renal cell carcinoma cell lines (ACHN, Caki-I, and Caki-II).
(§4) After cells were cultured in RPMI-1640 (2000 mg D-glucose/L) media, the above monosaccharides and rare sugars were added to the resulting media, respectively. Described specifically, they were following seven combinations: RPMI-1640 alone (control), RPMI-1640+D-glucose, RPMI-1640+L-allulose, RPMI-1640+D-allulose, RPMI-1640+D-fructose, RPMI-1640+D-allose, and RPMI-1640+D-allitol. The final concentration of the sugar in the medium was adjusted to 10 mM and no sugar was added in the control.
(§5) Five-ml portions of a 3.0×10^4 cells/ml cell suspension prepared using RPMI-1640 were seeded in dishes having a diameter of 6 cm (1.5×10^5 cells/dish) and cultured for 24 hours in the RPMI-1640 medium containing 2000 mg/l of D-glucose as a nutrient source. Twenty-four hours later, the media were changed to the culture solutions containing the monosaccharides and rare sugars described above in 2), respectively, followed by culturing for 48 hours.
(§6) After culturing for 48 hours, the attached human carcinoma cells were mechanically separated and collected in a Spitz tube together with the culture solution and floating cells. After the supernatant formed by centrifugation (4° C., 1200 rpm, and 5 minutes) was removed to obtain cell pellets alone, 5 ml of a phosphate buffer physiological saline (PBS) was added for the purpose of washing to obtain a cell suspension of the cell pellets. A gain, the resulting cell suspension was centrifuged at 4° C. and 1200 rpm for 5 minutes and the supernatant was removed. To the cell pellets after washing was added 1 ml of pure water to suspend them therein. Ultrasonic disruption (intensity: 40%, 30 seconds) was then performed and the monosaccharide in the disrupted cell suspension was labeled with ABEE, followed by analysis by HPLC. From the area thus obtained, the sugar content in the cells was determined using a calibration curve. With respect to the ketose, two peaks were found after labeling with ABEE so that the sugar content in the cells was determined from the calibration curves of both peaks.

The test system of series [3] is human prostate carcinoma cell line LNCa. As to the kind of experiment: Rare sugar uptake experiment, sugar content in disrupted cell suspension of LNCa. It counts as cell-based. As for the experimental part:
as §1, §2, §3, §4, §5, §6

Series [4] deals with human carcinoma cell lines. It counts as cell-based. Conditions: 48 h, 10 mM. As for the experimental part: as §1, §2
Used were human bladder carcinoma cell lines (RT112, 253), and J82), human prostatic carcinoma cell lines (LNCa, Du145, and PC-3), and human renal cell carcinoma cell lines (ACHN, Caki-I, and Caki-II). […]
After culturing for 48 hours, the attached human carcinoma cells were mechanically separated and collected in a Spitz tube together with the culture solution and floating cells. […] From the area thus obtained, the sugar content in the cells was determined using a calibration curve. With respect to the ketose, two peaks were found after labeling with ABEE so that the sugar content in the cells was determined from the calibration curves of both peaks.

The subject of series [5] is human bladder carcinoma cell line RT112. As to the kind of experiment: Rare sugar uptake experiment, sugar content in disrupted cell suspension of RT112. It counts as cell-based. As for the experimental part: as §1, §2, §3, §4, §5, §6

As for `O=C[C@H](O)[C@H](O)[C@H](O)[C@H](O)CO` [D-allose], the Viability entry in series [1] is listed as “significantly reduced the viability”. In addition, the “D-glucose content in cell” value in series [2] (Du145, named sugar added to RPMI-1640 at 10 mM, 48 hours, HPLC after ABEE labeling) is 16.2 µg; in series [3] (LNCa, named sugar added to RPMI-1640 at 10 mM, 48 hours, HPLC after ABEE labeling) it was 11.2 µg; in series [5] (RT112, named sugar added to RPMI-1640 at 10 mM, 48 hours, HPLC after ABEE labeling), 9.7 µg. The “Content in cell of the added sugar” value in series [2] (human, 48 h, 10 mM) was 0.0 µg; in series [3] (human, 48 h, 10 mM), 0.0 µg; in series [5] (human, 48 h, 10 mM), 0.0 µg. In addition, the “Uptake into the cells” value in series [4] is recorded as “found only in one (PC-3) of three human prostate carcinoma cell lines”.
